Data: ChEMBL document CHEMBL5352401, “Novel cudraisoflavone J derivatives as potent neuroprotective agents for the treatment of Parkinson's disease via the activation of Nrf2/HO-1 signaling” (Eur J Med Chem, 2022)
Calls of active or inactive are those of the source. The rule behind the calls is not given here.

How the values were obtained:
PC-12 [1] = experiment: Cytotoxicity in rat PC-12 cells assessed as cell viability measured at 10 to 30 uM for 24 hrs by MTT assay; type: functional, cell-based; conditions: dose 10-30 µM
PC-12 [2] = experiment: Neuroprotective activity against 6-OHDA-induced cytotoxicity in rat PC-12 cells at 30 uM for 4 hrs followed by exposure to 6-OHDA measured after 24 hrs by MTT assay; type: functional, cell-based; conditions: time 28.0 hrs
PC-12 [3] = experiment: Neuroprotective activity against 6-OHDA-induced cytotoxicity in rat PC-12 cells at 10 to 30 uM for 4 hrs followed by exposure to 6-OHDA measured after 24 hrs by MTT assay; type: functional, cell-based; conditions: dose 10-30 µM, time 28.0 hrs
PC-12 [4] = experiment: Neuroprotective activity against 6-OHDA-induced cytotoxicity in rat PC-12 cells at 0.1 to 30 uM for 4 hrs followed by exposure to 6-OHDA measured after 24 hrs by MTT assay relative to control; type: functional; conditions: dose 0.1-30 µM, time 28 hrs
PC-12 [5] = experiment: Cytotoxicity in rat PC-12 cells assessed as cell viability incubated at 0.1 to 30 uM for 24 hrs by MTT assay relative to control; type: functional; conditions: dose 0.1-30 µM
PC-12 [6] = experiment: Neuroprotective activity against 6-OHDA-induced cytotoxicity in rat PC-12 cells for 4 hrs followed by exposure to 6-OHDA measured after 24 hrs by MTT assay; type: functional, cell-based; conditions: dose 0.1-30 µM, time 28.0 hrs

SMILES | Activity (PC-12 [1]) | Activity (PC-12 [3]) | further results
CC1(C)Oc2c(c(O)cc3occ(-c4ccc(F)cc4)c(=O)c23)CC1O (stereo not given) | Active |  | 
CC1(C)Oc2c(c(O)cc3occ(-c4ccc(C(F)(F)F)cc4)c(=O)c23)CC1O (stereo not given) | Active |  | 
CC1(C)Oc2c(c(O)cc3occ(-c4cccs4)c(=O)c23)CC1O (stereo not given) |  |  | Activity (PC-12 [2]): inactive
CC1(C)Oc2c(c(O)cc3occ(-c4cc(F)cc(F)c4)c(=O)c23)CC1O (stereo not given) | Active | inactive | 
COc1ccc(-c2coc3cc(O)c4c(c3c2=O)OC(C)(C)C(O)C4)cc1OC (stereo not given) | inactive | inactive | 
CC1(C)Oc2c(c(O)cc3occ(-c4ccc(OC(F)(F)F)cc4)c(=O)c23)CC1O (stereo not given) | Active |  | 
COc1ccc(-c2coc3cc(O)c4c(c3c2=O)OC(C)(C)C(O)C4)c(OC)c1 (stereo not given) | inactive | inactive | 
COc1cc(OC)cc(-c2coc3cc(O)c4c(c3c2=O)OC(C)(C)C(O)C4)c1 (stereo not given) | inactive | inactive | 
CC(C)Oc1ccc(-c2coc3cc4c(c(O)c3c2=O)C=CC(C)(C)O4)cc1 |  | inactive | 
COc1ccc(-c2coc3cc(OC)c4c(c3c2=O)OC(C)(C)C(O)C4)cc1 (stereo not given) | inactive | inactive | 
Cc1cc(C)cc(-c2coc3cc(O)c4c(c3c2=O)OC(C)(C)C(O)C4)c1 (stereo not given) | Active |  | inhibition (INH) (PC-12 [4]): 45.4%; Activity (PC-12 [5]): 73%; Activity (PC-12 [6]): Dose-Dependent Effect; Activity (PC-12 [2]): Active
